Data: patent publication US20260317332A1, “BICYCLIC HETEROCYCLE COMPOUNDS FOR THE TREATMENT OF CANCER” (Hoffmann-La Roche Inc., priority 2023, published 2026)

Experiments:
CD4+ T cells = test: T Cell Proliferation Assay: CD4+ T cell proliferation; format: cell-based; conditions: Homo sapiens, high AMP condition (200 μM AMP, 5 μM EHNA), CD3/CD28 beads, 72 hours, read-out: CD4+ T cell proliferation EC50 (rescue of proliferation)
Description: (§1) The purpose of this assay is to characterize the potency of inhibitors of CD73 in rescuing adenosine-mediated inhibition of T cell proliferation. CD4+ or CD8+ T cells were isolated from peripheral blood mononuclear cells (PBMCs, HemaCare) by immunomagnetic negative selection using EasySep™ Isolation Kit (STEMCELL Technologies) following the supplier's protocol. Pan T cells were pelleted by centrifugation at 300 gravitational force (g) for 5 minutes at room temperature and re-suspended in PBS. CellTrace™ Violet staining solution (Invitrogen) was added at 1:5,000 and incubated at 37° C. for 20 minutes, protected from light. Complete culture medium [RPMI-1640 (Gibco), 10% Fetal Bovine Serum (Gibco), 2 mM GlutaMAX (Gibco) and 1 mM Sodium Pyruvate (Gibco), 100 U/mL Penicillin-Streptomycin (Gibco) and MEM non-essential amino acids (NEAA) cell culture supplement (1:100, Gibco)] was then added, mixed, and incubated at 37° C. for 5 minutes. Cells were then pelleted by centrifugation at 300 g for 5 minutes at room temperature and re-suspended in fresh, pre-warmed complete culture medium. 50 μL of cells were seeded per well in 96 well u-bottom plates. 50 μL of CD3/CD28 beads-containing medium and 50 μL of media containing compounds were added into cells. 50 μL of media containing AMP and EHNA hydrochloride (Sigma-Aldrich) was added into cells at 200 μM and 5 μM final concentration, respectively. Cells were incubated for 72 hours at 37° C. in a 5% CO2 incubator. 200 μL of PBS was then added to each well and cells were centrifuged at 300 g, 4° C. for 10 minutes. The supernatant was discarded. 50 μL of Human TruStain FcX™ (Fc Receptor Blocking Solution, BioLegend) diluted 1:100 in PBS was added to each well, mixed gently and incubated for 20 minutes at 4° C. 50 μL of staining solution (BioLegend) was added to each well, mixed gently and incubated at 4° C. for 30 minutes. Cells were centrifuged at 300 g, 4° C. for 10 minutes and the supernatant was discarded. The cell pellets were washed with 250 μL of cell staining buffer and centrifuged at 300 g, 4° C. for 10 minutes. The supernatant was discarded and cells were re-suspended in 60 μL of cell staining buffer and analyzed on a flow cytometer.

CD73 [1] = biological target: T1, CD73 (Homo sapiens, UniProt P21589); test: CD73 Cellular Assay; format: cell-based; parameters: 40 μL of MDA-MB-231 cells (ATCC, HTB-26, breast cancer); host or cells: MDA-MB-231; conditions: MDA-MB-231 cells; 200 μM AMP working solution; 45 min at 37° C.; malachite readout; read-out: Cellular IC50 against CD73
T1 sequence (P21589 27-574): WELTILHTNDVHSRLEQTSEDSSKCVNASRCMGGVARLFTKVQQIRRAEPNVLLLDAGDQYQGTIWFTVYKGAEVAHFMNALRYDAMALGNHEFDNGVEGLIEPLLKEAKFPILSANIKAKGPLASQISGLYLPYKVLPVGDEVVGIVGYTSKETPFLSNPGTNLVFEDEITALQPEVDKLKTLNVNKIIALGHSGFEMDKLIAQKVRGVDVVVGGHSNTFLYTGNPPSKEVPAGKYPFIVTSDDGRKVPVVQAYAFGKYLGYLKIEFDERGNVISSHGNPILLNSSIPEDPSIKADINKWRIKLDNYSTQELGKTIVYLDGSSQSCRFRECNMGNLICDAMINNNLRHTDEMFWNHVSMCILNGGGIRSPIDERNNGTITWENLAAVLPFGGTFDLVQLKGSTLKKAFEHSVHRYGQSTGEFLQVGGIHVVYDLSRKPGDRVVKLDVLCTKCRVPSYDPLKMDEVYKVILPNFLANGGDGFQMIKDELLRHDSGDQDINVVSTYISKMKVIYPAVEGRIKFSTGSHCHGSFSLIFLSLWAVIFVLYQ
Procedure, shortened: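 MDA-MB-231 cells (20,000 cells/mL) in HEPES pH 7.4 buffer preincubated 30 min with 1:3 compound dilutions, then AMP (200 μM working solution) added for 45 min at 37 °C, 5% CO2. Released phosphate in supernatant detected by malachite green absorbance at 620 nm; % inhibition normalised to neutral and inhibitor controls.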

CD8+ T cells = test: T Cell Proliferation Assay: CD8+ T cell proliferation; format: cell-based; conditions: high AMP condition (200 μM AMP, 5 μM EHNA), CD3/CD28 beads, 72 hours, read-out: CD8+ T cell proliferation EC50 (rescue of proliferation)
Description: as §1

CD73 [2] = biological target: T1, CD73; test: Human CD73 Biochemical Assay; conditions: 0.05 nM recombinant CD73; AMP 5.56 μM final; 10 min at room temperature; LC/MS adenosine readout; read-out: Enzymatic IC50 against human CD73
Procedure, shortened: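 Recombinant CD73 at 0.05 nM was preincubated with compound 15 min at room temperature in Tris pH 7.5 buffer with 1 mM NaH2PO4. Reaction ran 10 min with 5.56 μM AMP final and was stopped with TCA. Adenosine was quantified by LC-MS/MS MRM against a 13C5-adenosine internal standard using peak area ratios.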

Cn1nc(O[C@H](c2ccnc(OCC(F)(F)F)c2)C(F)F)c2cc(-c3c[nH]c(=O)[nH]c3=O)nnc21 [Example 10, 5-[3-[(1R)-2,2-difluoro-1-[2-(2,2,2-trifluoroethoxy)-4-pyridyl]ethoxy]-1-methyl-pyrazolo[3,4-c]pyridazin-5-yl]-1H-pyrimidine-2,4-dione]
EC50 (CD4+ T cells): 140 pM
IC50 (CD73 [1]): 550 pM
EC50 (CD8+ T cells): 80 pM
IC50 (CD73 [2]): 60 pM
